Experimental data published in patent publication US7563781B2, “Triazolopyrimidine derivatives” (Janssen Pharmaceutica NV, priority 2006, dated 2009).

Experiments:
[1] = target: T1, Focal Adhesion Kinase (full-length Flag-tagged human FAK) (Homo sapiens, UniProt Q05397); test: in vitro FAK ELISA kinase assay; type: biochemical; conditions: compound 10 uM; ATP 2 uM; read-out: FAK % Inhib ave: 10 uM
T1 construct: a purified recombinant full-length Flag-tagged human FAK protein; Flag; made in house; host or cells: baculovirus infected insect cells
T1 sequence (Q05397 whole entry): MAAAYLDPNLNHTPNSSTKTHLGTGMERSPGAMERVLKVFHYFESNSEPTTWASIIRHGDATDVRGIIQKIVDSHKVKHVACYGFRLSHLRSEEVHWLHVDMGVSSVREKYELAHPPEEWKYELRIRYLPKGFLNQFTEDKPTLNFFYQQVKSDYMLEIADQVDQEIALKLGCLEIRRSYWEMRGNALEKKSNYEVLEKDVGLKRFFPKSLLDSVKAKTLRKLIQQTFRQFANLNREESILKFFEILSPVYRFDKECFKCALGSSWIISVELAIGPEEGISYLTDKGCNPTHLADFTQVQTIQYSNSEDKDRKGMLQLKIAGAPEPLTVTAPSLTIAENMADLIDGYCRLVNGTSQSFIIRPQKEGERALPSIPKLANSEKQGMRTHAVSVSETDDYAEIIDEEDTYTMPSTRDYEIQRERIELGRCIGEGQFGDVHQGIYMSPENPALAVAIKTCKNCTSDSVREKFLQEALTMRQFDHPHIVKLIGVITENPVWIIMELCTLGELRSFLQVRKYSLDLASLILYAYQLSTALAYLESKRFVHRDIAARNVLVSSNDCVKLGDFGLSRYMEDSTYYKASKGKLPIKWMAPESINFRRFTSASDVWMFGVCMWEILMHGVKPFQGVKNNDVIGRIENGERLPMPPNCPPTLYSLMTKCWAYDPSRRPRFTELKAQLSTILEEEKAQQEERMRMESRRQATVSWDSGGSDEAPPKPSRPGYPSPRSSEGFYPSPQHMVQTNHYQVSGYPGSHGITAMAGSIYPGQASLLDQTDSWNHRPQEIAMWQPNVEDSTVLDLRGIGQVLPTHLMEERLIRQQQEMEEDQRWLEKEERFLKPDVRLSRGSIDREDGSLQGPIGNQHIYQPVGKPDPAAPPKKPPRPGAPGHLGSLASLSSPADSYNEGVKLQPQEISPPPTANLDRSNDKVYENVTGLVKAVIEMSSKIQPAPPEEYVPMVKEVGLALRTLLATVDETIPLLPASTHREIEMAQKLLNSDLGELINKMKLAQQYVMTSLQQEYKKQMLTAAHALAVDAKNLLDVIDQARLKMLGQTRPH
Procedure: Compound effects on the tyrosine kinase activity of Focal Adhesion Kinase were assessed with an in vitro FAK ELISA kinase assay. This assay measures the incorporation of phosphate from ATP into a FAK substrate protein using an antibody specific for phospho-tyrosine.
500 ng of FAKsubstrate, a purified recombinant fusion protein of GST and a 73 amino acid region surrounding the Tyr397 human FAK autophosphorylation site, was coated in a high-protein binding polystyrene 96 well plate overnight in a buffer containing 50 mM Hepes, pH 7.5, 150 mM NaCl, 0.1 mM Na-oVO4, 0.1 mM NaF and 1 protease inhibitor tablet/10 mL (Complete Mini-EDTA-free, Roche). The next day this solution was removed and the wells were incubated with 0.2% BSA in 50 mM Hepes, pH 7.5, 150 mM NaCl, 0.2 mM PMSF for 1 hour at 30° C. to block unoccupied protein binding sites. The wells were then washed with 50 mM Hepes, pH 7.5, 150 mM NaCl, 0.1% Tween 20. The kinase reaction was performed with 25 ng/well of FAK enzyme (a purified recombinant full-length Flag-tagged human FAK protein made in baculovirus infected insect cells) in 0.1 mL of a buffer containing 25 mM Hepes, pH 7.5, 5 mM MgCl2, 0.5 mM MnCl2, 10 uM NaoVO4, 0.2 mM PMSF. Compounds were added from 30% DMSO stock solutions for a screening concentration of 10 uM or IC50 determinations from 50 uM in half-log dilutions. The reaction is initiated with addition of ATP to a final concentration of 2 uM and incubated at 30° C. for 1 hour. Following the kinase reaction step, the wells were washed and incubated with 50 ng of Horseradish Peroxidase conjugated anti-phosphotyrosine antibody (PT-66 HRP, Sigma) in 0.1 mL wash buffer for 1 hour at 30° C. Wells were then washed and 0.1 mL HRP substrate, Tetra-methyl Benzidine (Sigma) was added and the color reaction allowed to proceed for 2-3 minutes followed by the addition of 0.1 mL of 1N H2SO4 to stop the HRP reaction. Percent inhibition of FAK kinase activity was calculated by comparing compound containing wells to wells treated with diluent only. Background was subtracted from all wells and was defined as the activity of FAK using 500 ng/well of BSA as a substrate. IC50 values were obtained using Prism data analysis software.

[2] = target: T2, CAK complex (human Cdk7, human Cyclin H, MAT-1) (Homo sapiens, UniProt P50613); test: in vitro time-resolved-fluorescence assay for the CAK kinase activity; type: biochemical; conditions: compound 20 uM; read-out: CAK % inhib; 20 uM
T2 construct: made in house; host or cells: SF-900 insect cells co-infected with Flag-Cdk7 and Bab-Cyclin H baculoviruses
T2 sequence (P50613 with tags, fused parts or gaps): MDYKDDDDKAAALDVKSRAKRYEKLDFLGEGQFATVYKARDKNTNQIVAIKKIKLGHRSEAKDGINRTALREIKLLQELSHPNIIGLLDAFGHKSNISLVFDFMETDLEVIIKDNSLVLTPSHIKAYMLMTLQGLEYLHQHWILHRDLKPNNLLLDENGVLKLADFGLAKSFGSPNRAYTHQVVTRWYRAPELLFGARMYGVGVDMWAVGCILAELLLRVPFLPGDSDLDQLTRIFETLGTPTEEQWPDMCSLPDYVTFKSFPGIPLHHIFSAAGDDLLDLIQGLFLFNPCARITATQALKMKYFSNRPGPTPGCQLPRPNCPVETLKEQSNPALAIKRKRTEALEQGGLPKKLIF
T2 sequence (as listed by the source partner): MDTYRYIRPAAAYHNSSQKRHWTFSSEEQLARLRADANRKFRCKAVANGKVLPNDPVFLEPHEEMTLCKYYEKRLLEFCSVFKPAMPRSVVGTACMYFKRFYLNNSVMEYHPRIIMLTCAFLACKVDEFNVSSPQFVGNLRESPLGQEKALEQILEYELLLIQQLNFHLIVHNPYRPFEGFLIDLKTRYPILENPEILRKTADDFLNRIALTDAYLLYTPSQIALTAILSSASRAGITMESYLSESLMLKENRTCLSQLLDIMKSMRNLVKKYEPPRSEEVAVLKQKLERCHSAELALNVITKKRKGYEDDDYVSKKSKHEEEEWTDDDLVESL
Text: Cyclin Dependent Kinase Activating Kinase (CAK) is a complex of proteins that phosphorylates a well-conserved threonine (Thr) residue in all mammalian cyclin dependent kinases (cdks). The CAK complex can also phosphorylate several components of the transcriptional machinery, such as the C-terminal domain (CTD) of RNA polymerase II in the TFIIH transcription complex. The CAK complex localizes to the nucleus, and is composed of three proteins: Cdk7, Cyclin H, and MAT-1. The exemplified method teaches the cloning and expression CAK subunits, particularly a human Cdk7 and a human Cyclin H. The method of the present invention exemplified herein is equally applicable to the cloning and expression of any CAK subunit, such as variants, structural or functional polymorphisms of the human Cdk7 or the human Cyclin H, or their orthologs in other animals such as rat, mouse, pig, dog and monkey.
The CAK complex was purified from co-infected SF-900 insect cells at 48 hours post infection by batch immunoaffinity purification. The infected cells were pelleted by centrifugation and lysed in 1/10 of the culture volume in a solution containing 50 mM Hepes pH 7.5, 10 mM MgCl2, 1 mM DTT, 10 mM Beta-Glycerol phosphate, 20 uM Na-oVO4, 0.2 mM PMSF and 1 μg/mL each of leupeptin, aprotinin, and pepstatin on ice. Cells were mechanically lysed by trituration through a 22-gauge needle followed by sonication or alternately by nitrogen cavitation. The lysed cells were centrifuged at 50,000×G for 1 hour at 4° C. to remove debris and the supernatant was applied to 1/10 volume of prewashed Flag-M2 immunoaffinity resin (Sigma). The CAK complex, by nature of the Flag tagged Cdk7 protein, was allowed to bind to the Flag antibody of the resin overnight at 4° C. with gentle rocking. The resin was washed 4 times with 5 resin volumes of lysis buffer and the bound proteins were eluted by competition with 0.5 mg/mL Flag peptide ([…], American Peptide Co, Inc., SEQ ID NO: 16) in a total of 2 resin volumes. To remove the Flag peptide, the eluted material was applied to PD-10 gel filtration columns (Pharmacia) under conditions recommended by the manufacturer.
Measurement of CAK kinase activity was accomplished using an antibody methodology in which a Europium labeled antibody binds preferentially to serine phosphorylated GST-CTD substrate. The long-lived europium label fluorescence allows a greater signal-to-noise ratio due to the delay in reading the emission wavelength, thereby eliminating signals from immediate fluorescence and fluorescent pharmaceutical screening compounds.
The time-resolved-fluorescence assay for the CAK kinase activity is performed as follows. In a well of a black glutathione coated 96 well micro titer plate (Pierce Chemical, No. 15360), the following reagents were added: 1) 25 ul substrate solution containing 500 ng purified GST-CTD in a buffer having 50 mM Hepes pH 7.5, 10 mM MgCl2, 1 mM DTT, 0.2 mM PMSF, 40 uM Na-oVO4, and 22 uM ATP (as a background control, the buffer, including ATP but not substrate was added); 2) 2.5 ul of screening compounds in a diluent containing 30% DMSO/25 mM Hepes pH7.5 (As a control, the diluent only was added. Typically the final concentration of compound is 1 uM); and 3) 250 ng CAK enzyme complex in enzyme buffer containing 25 ul of 50 mM Hepes pH 7.5, 10 mM MgCl2, 1 mM DTT, 0.2 mM PMSF, and 40 uM Na-oVO4. The micro titer plate was shaken for 2 minutes on a titer plate shaker and allowed to incubate at 30° C. for 20 minutes.
Subsequently, Kinase Stop Solution (75 mM EDTA, 0.2 mM PMSF, 1 mM DTT, 120 uM Na oVO4 in PBS) was added (50 ul/well). The plate was shaken for 2 minutes and incubated overnight at room temperature to allow substrate binding to the wells. The plate contents were flicked out, and the wells of the plate were washed 4 times with 350 ul of wash buffer (Delphia wash buffer, Perkin-Elmer, Inc.). The plate was tapped dry. […]

Compound	inhibition at 10 µM [1] [%]	inhibition at 20 µM [2] [%]
CN(C)CC(O)COc1ccc(Nc2ncc3nnn(-c4ccc5c(c4)CCC5)c3n2)cc1 (stereo not shown) [Compound 1, 1-Dimethylamino-3-[4-(3-indan-5-yl-3H-[1,2,3]triazolo[4,5-d]pyrimidin-5-ylamino)-phenoxy]-propan-2-ol]	93.6	102
COc1ccc(-n2nnc3cnc(Nc4ccc(OCC(O)CN(C)C)cc4)nc32)cc1OC (stereo not shown) [Compound 3, 1-{4-[3-(3,4-Dimethoxy-phenyl)-3H-[1,2,3]triazolo[4,5-d]pyrimidin-5-ylamino]-phenoxy]-3-dimethylamino-propan-2-ol]	53.2	
CN(C)CCCOc1ccc(Nc2ncc3nnn(-c4ccc5c(c4)CCC5)c3n2)cc1 [Compound 4, [4-(3-Dimethylamino-propoxy)-phenyl]-(3-indan-5-yl-3H-[1,2,3]triazolo[4,5-d]pyrimidin-5-yl)-amine]	95	
CCCCCOc1ccc(Nc2ncc3nnn(-c4ccc5c(c4)CCC5)c3n2)cc1 [Compound 5, (3-Indan-5-yl-3H-[1,2,3]triazolo[4,5-d]pyrimidin-5-yl)-(4-pentyloxy-phenyl)-amine]	12.4	25.9
CC(C)(C)OC(=O)N1CCC(CNc2ncc3nnn(-c4ccc5c(c4)CCC5)c3n2)CC1 [Compound 6, 4-[(3-Indan-5-yl-3H-[1,2,3]triazolo[4,5-d]pyrimidin-5-ylamino)-methyl]-piperidine-1-carboxylic acid tert-butyl ester]	73	28.9
CN(C)c1ccc(/C=C/c2ccc(Nc3ncc4nnn(-c5ccc6c(c5)CCC6)c4n3)cc2)cc1 [Compound 7, {4-[2-(4-Dimethylamino-phenyl)-vinyl]-phenyl}-(3-indan-5-yl-3H-[1,2,3]triazolo[4,5-d]pyrimidin-5-yl)-amine]	-5	38.7
CN(C)CC(O)COc1ccc(Nc2ncc3nnn(-c4ccccc4)c3n2)cc1 (stereo not shown) [Compound 8, 1-Dimethylamino-3-[4-(3-phenyl-3H-[1,2,3]triazolo[4,5-d]pyrimidin-5-ylamino)-phenoxy]-propan-2-ol]	77.4	92.2
CN(C)CC(O)COc1ccc(Nc2ncc3nnn(C4CCCCC4)c3n2)cc1 (stereo not shown) [Compound 9, 1-[4-(3-Cyclohexyl-3H-[1,2,3]triazolo[4,5-d]pyrimidin-5-ylamino)-phenoxy]-3-dimethylamino-propan-2-ol]	23	85.9
CN(C)CC(O)COc1ccc(Nc2ncc3nnn(-c4cccc(C#N)c4)c3n2)cc1 (stereo not shown) [Compound 10, 3-{5-[4-(3-Dimethylamino-2-hydroxy-propoxy)-phenylamino]-[1,2,3]triazolo[4,5-d]pyrimidin-3-yl]-benzonitrile]	64.7	11.5
CN(C)CC(O)COc1ccc(Nc2ncc3nnn(-c4ccc(F)c(F)c4)c3n2)cc1 (stereo not shown) [Compound 11, 1-{4-[3-(3,4-Difluoro-phenyl)-3H-[1,2,3]triazolo[4,5-d]pyrimidin-5-ylamino]-phenoxy}-3-dimethylamino-propan-2-ol]	65.3	56
CN(C)CC(O)COc1ccc(Nc2ncc3nnn(-c4ccc5ccccc5c4)c3n2)cc1 (stereo not shown) [Compound 12, 1-Dimethylamino-3-[4-(3-naphthalen-2-yl-3H-[1,2,3]triazolo[4,5-d]pyrimidin-5-ylamino)-phenoxy]-propan-2-ol]	82.9	92.4
CN(C)CC(O)COc1ccc(Nc2ncc3nnn(-c4ccc5ncccc5c4)c3n2)cc1 (stereo not shown) [Compound 13, 1-Dimethylamino-3-[4-(3-quinolin-6-yl-3H-[1,2,3]triazolo[4,5-d]pyrimidin-5-ylamino)-phenoxy]-propan-2-ol]	24.4	72.6
CN(C)CC(O)COc1ccc(Nc2ncc3nnn(-c4ccc5ncsc5c4)c3n2)cc1 (stereo not shown) [Compound 14, 1-[4-(3-Benzothiazol-6-yl-3H-[1,2,3]triazolo[4,5-d]pyrimidin-5-ylamino)-phenoxy]-3-dimethylamino-propan-2-ol]	76.8	42.2
CN(C)CC(O)COc1ccc(Nc2ncc3nnn(-c4ccc(C5CCCCC5)cc4)c3n2)cc1 (stereo not shown) [Compound 15, 1-{4-[3-(4-Cyclohexyl-phenyl)-3H-[1,2,3]triazolo[4,5-d]pyrimidin-5-ylamino]-phenoxy}-3-dimethylamino-propan-2-ol]	80.5	76
CN(C)CC(O)COc1ccc(Nc2ncc3nnn(-c4ccc(N5CCOCC5)cc4)c3n2)cc1 (stereo not shown) [Compound 16, 1-Dimethylamino-3-{4-[3-(4-morpholin-4-yl-phenyl)-3H-[1,2,3]triazolo[4,5-d]pyrimidin-5-ylamino]-phenoxy}-propan-2-ol]	50.5	83.1
CN(C)CC(O)COc1ccc(Nc2ncc3nnn(-c4ccc5c(c4)Cc4ccccc4-5)c3n2)cc1 (stereo not shown) [Compound 17, 1-Dimethylamino-3-{4-[3-(9H-fluoren-2-yl)-3H-[1,2,3]triazolo[4,5-d]pyrimidin-5-ylamino]-phenoxy}-propan-2-ol]	86.8	53.8
CCCCNS(=O)(=O)c1cccc(-n2nnc3cnc(Nc4ccc(OCC(O)CN(C)C)cc4)nc32)c1 (stereo not shown) [Compound 35, N-Butyl-3-{5-[4-(3-dimethylamino-2-hydroxy-propoxy)-phenylamino]-[1,2,3]triazolo[4,5-d]pyrimidin-3-yl}-benzene-sulfonamide]	91.6	
